Source: PubChem BioAssay (NCI)
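How tested: cells in 96-well plates exposed to compound for 48 hours at five concentrations. TGI marks complete inhibition of growth.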

Assays:
Assay in all cases: inhibition of tumour cell growth, NCI panel, 48 h
[1] = test system: HCT-116 colon
[2] = test system: HOP-62 NSCLC
[3] = test system: MALME-3M melanoma
[4] = test system: BT-549 breast
[5] = test system: ACHN renal
[6] = test system: RPMI-8226 leukemia
[7] = test system: OVCAR-3 ovarian
[8] = test system: PC-3 prostate
[9] = test system: SN12C renal
[10] = test system: KM12 colon
[11] = test system: EKVX NSCLC
[12] = test system: T-47D breast
[13] = test system: TK-10 renal
[14] = test system: OVCAR-4 ovarian
[15] = test system: K-562 leukemia
[16] = test system: IGROV1 ovarian
[17] = test system: NCI-H226 lung
[18] = test system: DLD-1 colon
[19] = test system: DMS 273 small cell lung
[20] = test system: HCC-2998 colon
[21] = test system: DMS 114 small cell lung
[22] = test system: HL-60(TB) leukemia
[23] = test system: SF-268 CNS
[24] = test system: HCT-15 colon
[25] = test system: XF 498 CNS
[26] = test system: HOP-18 NSCLC
[27] = test system: LXFL 529 NSCLC
[28] = test system: UO-31 renal
[29] = test system: SW-620 colon
[30] = test system: MOLT-4 leukemia
[31] = test system: CCRF-CEM leukemia
[32] = test system: SNB-78 CNS
[33] = test system: UACC-62 melanoma
[34] = test system: SNB-19 CNS
[35] = test system: SK-OV-3 ovarian
[36] = test system: SR leukemia
[37] = test system: SK-MEL-28 melanoma
[38] = test system: DU-145 prostate
[39] = test system: A549 NSCLC
[40] = test system: 786-0 renal
[41] = test system: KM20L2 colon
[42] = test system: NCI-H522 lung
[43] = test system: M14 melanoma
[44] = test system: NCI-H23 lung
[45] = test system: MDA-MB-435
[46] = test system: CAKI-1 renal
[47] = test system: RXF 393 renal
[48] = test system: SK-MEL-2 melanoma
[49] = test system: SNB-75 CNS
[50] = test system: HS 578T breast
[51] = test system: COLO 205 colon
[52] = test system: OVCAR-5 ovarian
[53] = test system: UACC-257 melanoma
[54] = test system: U251 CNS
[55] = test system: MDA-N
[56] = test system: MDA-MB-231 breast
[57] = test system: HT29 colon
[58] = test system: SF-295 CNS
[59] = test system: OVCAR-8 ovarian
[60] = test system: SK-MEL-5 melanoma
[61] = test system: NCI-H460 lung
[62] = test system: LOX IMVI melanoma
[63] = test system: A498 renal
[64] = test system: SF-539 CNS
[65] = test system: HOP-92 NSCLC
[66] = test system: NCI/ADR-RES ovarian
[67] = test system: MCF7 breast
[68] = test system: M19-MEL melanoma

`COc1cccc2c1C(=O)c1c(O)c3c(c(O)c1C2=O)C[C@@](O)(C(=O)CO)C[C@@H]3OC1CC(N(C)C)C(O)C(C)O1` (some centres not stated) was tested. Which TGI [1] did it give?
Its TGI is 12.3 µM.

And the TGI [2]?
Its TGI is 0.272 µM.

And the TGI [3]?
The TGI was 0.0576 µM.

What about the TGI [4] of the same compound?
Its TGI is 0.556 µM.

What about the TGI [5] of the same compound?
Its TGI is 0.0966 µM.

And the TGI [6]?
Its TGI is 0.825 µM.

And the TGI [7]?
Its TGI is 0.858 µM.

What about the TGI [8] of the same compound?
The TGI was 0.102 µM.

What about the TGI [9] of the same compound?
The TGI was 1.14 µM.

What about the TGI [10] of the same compound?
Its TGI is 0.338 µM.

What about the TGI [11] of the same compound?
The TGI was 0.413 µM.

And the TGI [12]?
The TGI was 0.0969 µM.

And the TGI [13]?
Its TGI is 2.28 µM.

What about the TGI [14] of the same compound?
Its TGI is 0.266 µM.

And the TGI [15]?
The TGI was 9.41 µM.

What about the TGI [16] of the same compound?
The TGI was 0.183 µM.

And the TGI [17]?
Its TGI is 0.0814 µM.

What about the TGI [18] of the same compound?
The TGI was 0.176 µM.

And the TGI [19]?
The TGI was 0.158 µM.

What about the TGI [20] of the same compound?
Its TGI is 0.258 µM.

What about the TGI [21] of the same compound?
The TGI was 0.204 µM.

What about the TGI [22] of the same compound?
Its TGI is 0.0206 µM.

And the TGI [23]?
Its TGI is 0.36 µM.

What about the TGI [24] of the same compound?
Its TGI is 0.765 µM.

What about the TGI [25] of the same compound?
Its TGI is 0.0553 µM.

And the TGI [26]?
The TGI was 2.95 µM.

And the TGI [27]?
The TGI was 1.6 µM.

And the TGI [28]?
The TGI was 0.427 µM.

What about the TGI [29] of the same compound?
The TGI was 1.38 µM.

What about the TGI [30] of the same compound?
The TGI was 0.299 µM.

And the TGI [31]?
Its TGI is 7.59 µM.

What about the TGI [32] of the same compound?
Its TGI is 0.645 µM.

And the TGI [33]?
Its TGI is 0.0261 µM.

What about the TGI [34] of the same compound?
Its TGI is 0.649 µM.

And the TGI [35]?
Its TGI is 1.76 µM.

What about the TGI [36] of the same compound?
Its TGI is 0.0188 µM.

And the TGI [37]?
Its TGI is 0.168 µM.

What about the TGI [38] of the same compound?
Its TGI is 0.803 µM.

And the TGI [39]?
Its TGI is 0.785 µM.

What about the TGI [40] of the same compound?
Its TGI is 1.51 µM.

And the TGI [41]?
Its TGI is 0.591 µM.

What about the TGI [42] of the same compound?
The TGI was 0.0922 µM.

What about the TGI [43] of the same compound?
The TGI was 0.104 µM.

What about the TGI [44] of the same compound?
Its TGI is 0.0946 µM.

And the TGI [45]?
Its TGI is 0.165 µM.

What about the TGI [46] of the same compound?
The TGI was 0.0733 µM.

What about the TGI [47] of the same compound?
The TGI was 0.0827 µM.

What about the TGI [48] of the same compound?
Its TGI is 0.0885 µM.

And the TGI [49]?
Its TGI is 0.138 µM.

And the TGI [50]?
The TGI was 0.0344 µM.

And the TGI [51]?
Its TGI is 0.0186 µM.

And the TGI [52]?
The TGI was 0.352 µM.

What about the TGI [53] of the same compound?
The TGI was 0.153 µM.

And the TGI [54]?
The TGI was 2.75 µM.

And the TGI [55]?
The TGI was 0.0833 µM.

What about the TGI [56] of the same compound?
The TGI was 0.615 µM.

And the TGI [57]?
Its TGI is 1.82 µM.

What about the TGI [58] of the same compound?
Its TGI is 0.173 µM.

And the TGI [59]?
The TGI was 1.52 µM.

And the TGI [60]?
The TGI was 0.0455 µM.

What about the TGI [61] of the same compound?
The TGI was 0.0167 µM.

And the TGI [62]?
The TGI was 0.0102 µM.

And the TGI [63]?
Its TGI is < 0.0195 µM.

What about the TGI [64] of the same compound?
The TGI was 0.121 µM.

What about the TGI [65] of the same compound?
The TGI was 0.312 µM.

For `COC(=O)N/N=C(/CC1(O)C(=O)Nc2ccc([N+](=O)[O-])cc21)c1ccccc1` (configuration not stated), which TGI [1] is on record?
The TGI was > 58.6 µM.

And the TGI [2]?
The TGI was > 90.2 µM.

And the TGI [3]?
The TGI was > 75.4 µM.

And the TGI [4]?
The TGI was 92.3 µM.

What about the TGI [5] of the same compound?
Its TGI is > 72.2 µM.

What about the TGI [6] of the same compound?
Its TGI is 97.2 µM.

What about the TGI [7] of the same compound?
Its TGI is > 74.6 µM.

What about the TGI [8] of the same compound?
Its TGI is > 100 µM.

And the TGI [9]?
Its TGI is > 100 µM.

What about the TGI [10] of the same compound?
Its TGI is > 63.7 µM.

And the TGI [66]?
The TGI was 55.7 µM.

And the TGI [11]?
The TGI was > 93.4 µM.

And the TGI [12]?
Its TGI is > 100 µM.

And the TGI [13]?
The TGI was 57.6 µM.

And the TGI [67]?
The TGI was 5.61 µM.

And the TGI [14]?
Its TGI is > 84.7 µM.

What about the TGI [15] of the same compound?
Its TGI is > 87.2 µM.

What about the TGI [16] of the same compound?
Its TGI is > 73.6 µM.

And the TGI [17]?
Its TGI is 98.3 µM.

And the TGI [18]?
The TGI was > 100 µM.

What about the TGI [19] of the same compound?
The TGI was > 100 µM.

And the TGI [20]?
Its TGI is > 100 µM.

And the TGI [21]?
Its TGI is > 100 µM.

What about the TGI [22] of the same compound?
Its TGI is 58.8 µM.

What about the TGI [23] of the same compound?
Its TGI is > 100 µM.

And the TGI [24]?
Its TGI is > 70.6 µM.

And the TGI [25]?
The TGI was 46.5 µM.

What about the TGI [27] of the same compound?
Its TGI is > 100 µM.

And the TGI [28]?
Its TGI is 91.6 µM.

What about the TGI [29] of the same compound?
The TGI was > 69.4 µM.

And the TGI [30]?
The TGI was > 66.7 µM.

What about the TGI [31] of the same compound?
Its TGI is > 76.6 µM.

And the TGI [32]?
The TGI was 50.6 µM.

And the TGI [33]?
The TGI was > 54.7 µM.

And the TGI [34]?
The TGI was > 100 µM.

What about the TGI [35] of the same compound?
The TGI was > 100 µM.

And the TGI [36]?
Its TGI is > 68.3 µM.

And the TGI [37]?
Its TGI is > 70.9 µM.

What about the TGI [38] of the same compound?
Its TGI is > 100 µM.

What about the TGI [39] of the same compound?
The TGI was > 100 µM.

What about the TGI [40] of the same compound?
The TGI was > 54.4 µM.

What about the TGI [41] of the same compound?
Its TGI is > 100 µM.

And the TGI [42]?
Its TGI is > 75.9 µM.

What about the TGI [43] of the same compound?
The TGI was > 64.8 µM.

And the TGI [44]?
Its TGI is > 60.1 µM.

And the TGI [45]?
Its TGI is 57.3 µM.

What about the TGI [46] of the same compound?
The TGI was > 100 µM.

And the TGI [47]?
The TGI was 51.4 µM.

And the TGI [48]?
The TGI was > 72.9 µM.

What about the TGI [49] of the same compound?
The TGI was 54.9 µM.

What about the TGI [50] of the same compound?
The TGI was 73.3 µM.

And the TGI [51]?
The TGI was > 82.5 µM.

And the TGI [52]?
The TGI was > 100 µM.

And the TGI [53]?
The TGI was > 95.6 µM.

What about the TGI [54] of the same compound?
The TGI was 76.9 µM.

And the TGI [55]?
Its TGI is 94.4 µM.

What about the TGI [56] of the same compound?
Its TGI is 44 µM.

And the TGI [57]?
Its TGI is > 79.4 µM.

What about the TGI [58] of the same compound?
The TGI was 39.2 µM.

What about the TGI [59] of the same compound?
The TGI was > 68.5 µM.

What about the TGI [60] of the same compound?
The TGI was > 60.9 µM.

And the TGI [61]?
The TGI was > 100 µM.

What about the TGI [62] of the same compound?
The TGI was 36.1 µM.

And the TGI [68]?
The TGI was > 100 µM.

What about the TGI [63] of the same compound?
Its TGI is 25.8 µM.

And the TGI [64]?
The TGI was > 100 µM.

And the TGI [65]?
The TGI was > 100 µM.
